For eight compounds, IC50 results are on record in patent US20060167030A1, “Sulfonamido-macrocycles and the salts thereof, a pharmaceutical composition comprising these compounds, the method of preparing and the use thereof” (priority 2004, published 2006).

In data set [1] the target is T1, Tie2 (Homo sapiens, UniProt Q02763).
T1 construct: fused on or other part: GST in the kinase assays; none in the CHO cell assay
The data set is described as follows: Tie2 kinase assay or Tie2 autophosphorylation ELISA test (not stated which). The format is biochemical. The settings on record: either assay; not specified per compound; read-out: IC50 of Tie2 inhibition, either in the Tie2 kinase assay or in the Tie2 autophosphorylation ELISA test. The text has this: Biological Experiment 1: ELISA Method
Herein CHO cell-cultures, which are stably transfected by known techniques with Tie2 using DHFR deficiency as selection marker, are stimulated by angiopoietin-2. The specific autophosphorytation of Tie2 receptors is quantified with a sandwich-ELISA using anti-Tie2 antibodies for catch and anti-phosphotyrosine antibodies coupled to HRP as detection.
• 96 well tissue culture plate, sterile, Greiner • 96 well FluoroNunc plate MaxiSorp Surface C, Nunc • 96 well plate polypropylene for compound dilution in DMSO • CHO Tie2/DHFR (transfected cells) • PBS−; PBS++, DMSO • MEM alpha Medium with Glutamax-I without Ribonucleosides and Deoxyribonucleosides (Gibco #32561-029) • with 10% FCS after dialysis! and 1% PenStrep • Lysis buffer: 1 Tablet “Complete” protease inhibitor • 1 cap Vanadate (1 mL>40 mg/mL; working solution 2 mM) • ad 50 mL with Duschl-Puffer • pH 7.6 • Anti-TIE-II antibody 1:425 in Coating Buffer pH 9.6 • Stock solution: 1.275 mg/mL>working: 3 μg/mL • PBST: 2 bottles PBS(10×)+10 ml Tween, fill up with VE-water • RotiBlock 1:10 in VE-water • Anti-Phosphotyrosine HRP-Conjugated 1:10000 in 3% TopBlock • 3% TopBlock in PBST • BM Chemiluminescence ELISA Substrate (POD) • solution B 1:100 solution A • SF9 cell culture medium • Ang2-Fc in SF9 cell culture medium Cell Experiment: • Dispense 5×10^4 cells/well/98 μL in 96 well tissue culture plate • Incubate at 37° C./5% CO2 • After 24 h add compounds according to desired concentrations • Add also to control and stimulated values without compounds 2 μL DMSO • And mix for a few min at room temperature • Add 100 μL Ang2-Fc to all wells except control, which receives insect medium • Incubate 20 min at 37° C. • Wash 3× with PBS++ • Add 100 μl Lysis buffer/well and shake a couple of min at room temperature • Store lysates at […] before utilizing for the ELISA Performance of Sandwich-ELISA • Coat 96 well FluoroNunc Plate MaxiSorp Surface C with anti-Tie2 Mab • 1:425 in Coating buffer pH 9.6; 100 μL/well overnight at 4° C. • Wash 2× with PBST • Blcock plates with 250 μL/well RotiBtock 1:10 in VE-water • Incubate for 2 h at room temperature or overnight at 4° C. shaking • Wash 2× in PBST • Add thawed lysates to wells and incubate overnight shaking at 4° C. • Wash 2× with PBST • Add 100 μL/well anti-Phosphotyrosine HRP-Conjugated 1:10000 in 3% TopBLock (3% TopBLock in PBST) and incubate overnight under shaking • Wash 6× with PBST • Add 100 μL/well BM Chemiluminescence ELISA Substrate (POD) solutions 1 und 2 (1:100) • Determine luminescence with the LumiCount. Biological Experiment 2: Tie-2-Kinase HTRF-Assay
Tie-2 phosphorylates tyrosine residues of the artificial substrate poLyGAT (biolinylated poLyGLuAlaTyr). Detection of phosphorylated product is achieved specifically by a trimeric detection complex consisting of the phosphorylated substrate, streptavidin-XLent (SA-XLent) which binds to biotin, and Europium Cryptate-LabeLed anti-phosphotyrosine antibody PT66 which binds to phosphorylated tyrosine. Excitation of Europium fluorescence with 337 nm light results in emission of long-lived light with 620 nm. In case a trimeric detection complex has formed, part of the energy will be transferred to the SA-XLent fluorophore that itself then emits long-lived light of 665 nm (FRET: fluorescence resonance energy transfer). […] Measurement is performed in a Packard Discovery or BMG Rubystar instrument. A-counts (emission at 665 nm) will be divided by B-counts (emission at 620 nm) and multiplicated with a factor of 10000. The resulting numbers are called the “well ratio” of the sample.
A recombinant fusion protein of GST and the intracellular domains of Tie-2, expressed in insect cells (Hi-5) and purified by Glutathion-Sepharose affinity chromatography was used as kinase. Alternatively, commercially available GST-Tie2-fusion protein (Upstate Biotechnology, Dundee, Scotland) can be used. […]

A short description of data set [2]: Proliferation test / cytotoxicity assay (crystal violet). The format is cell-based. The settings on record: human, DU 145 tumour cells; cell line DU 145. The protocol: Biological Experiment 3: Proliferation Test
To examine cell toxicity a cell proliferation test were established.
With the cell proliferation test different tumour cell lines (e.g. Du 145) can be examined. The cells were dispensed in RPMI 1640 culture medium, supplied with 10% (v/v) fetal calf serum plus 1% (v/v) Penicillin/Streptomycin solution at a cell density of 2.000 cell/100 μL medium/per well (96 well plate). After three hours the cells were washed with PBS (containing calcium and magnesium). 100 μL of culture medium above with 0.1% (v/v) fetal calf serum was added and cultured at 37° C. and 5% CO2-atmosphere. Next day compounds of the present invention diluted in DMSO for appropriate concentrations were added and further 100 μL culture medium 0.5% (v/v) fetal calf serum. After 5 days cell culturing at 37° C. and 5% CO2-atmosphere cells were washed with PBS. 20 μL of glutaraldehyde solution (11% (v/v)) is added and the cells were slightly shaken at room temperature for 15 min. After that the cell were washed 3 times and dried in the air. 100 μL of crystal violet solution (0.1% at pH 3.5) were added and the cells were shaken for 30 min. The cells were washed with tap water and air-dried. The colour is dissolved with 100 μL of acetic acid (10% (v/v)) under strong shaking for 5 min. The absorption was measured at 595 nm wavelength.

Each structure is given as a SMILES string.

T1 sequence (Q02763 770-1124 limits assumed): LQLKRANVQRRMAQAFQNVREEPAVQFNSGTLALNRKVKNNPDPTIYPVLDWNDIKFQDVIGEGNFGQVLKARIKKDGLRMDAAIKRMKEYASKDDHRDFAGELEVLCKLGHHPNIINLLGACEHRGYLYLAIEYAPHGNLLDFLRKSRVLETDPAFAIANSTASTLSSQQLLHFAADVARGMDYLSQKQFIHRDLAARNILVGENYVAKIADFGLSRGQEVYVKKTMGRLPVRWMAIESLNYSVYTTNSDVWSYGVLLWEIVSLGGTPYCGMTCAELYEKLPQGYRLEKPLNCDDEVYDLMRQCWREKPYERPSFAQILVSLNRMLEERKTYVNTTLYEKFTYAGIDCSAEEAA

`CS(=O)(=O)c1ccc(-c2cnc3nc2NCCCNS(=O)(=O)c2cccc(c2)N3)cc1` [Example 11, 1^5-(4-methylsulfonylphenyl)-4-thia-2,5,9-triaza-1(2,4)-pyrimidina-3(1,3)-benzenacyclononaphane 4,4-dioxide]: the 50% inhibitory concentration (IC50) in data set [1] is ≤ 2000 nM. Still for that read-out and setting: as for `C=C(c1ccccc1)c1cnc2nc1NCCCNS(=O)(=O)c1cccc(c1)N2` [Example 52, 1^5-(1-phenyl-vinyl)-4-thia-2,5,9-triaza-1(2,4)-pyrimidina-3(1,3)-benzenacyclononaphane 4,4-dioxide], the figure is ≤ 2000 nM; as for `O=S1(=O)NCCCNc2nc(ncc2-c2ccc(O)cc2)Nc2cccc1c2` [Example 9, 4-[4,4-dioxo-4λ^6-thia-2,5,9-triaza-1(2,4)-pyrimidina-3(1,3)-benzenacyclononaphan-1^5-yl]phenol], ≤ 2000 nM; as for `O=S1(=O)NCCCNc2nc(ncc2/C=C\c2ccccc2)Nc2cccc1c2` [Example 51, 1^5-((Z)-styryl)-4-thia-2,5,9-triaza-1(2,4)-pyrimidina-3(1,3)-benzenacyclononaphane 4,4-dioxide], ≤ 2000 nM. For the compound `COc1ccc(-c2cnc3nc2NCCCNS(=O)(=O)c2cccc(c2)N3)cc1` [Example 10, 1^5-(4-methoxyphenyl)-4-thia-2,5,9-triaza-1(2,4)-pyrimidina-3(1,3)-benzenacyclononaphane 4,4-dioxide], the IC50 in data set [1] was ≤ 2000 nM. Moreover, the half-maximal inhibitory concentration (IC50) at 5 days in data set [2] is > 1000 nM. For `COC(=O)c1ccc(-c2cnc3nc2NCCCNS(=O)(=O)c2cccc(c2)N3)cc1` [Example 6, methyl 4-[4,4-dioxo-4λ^6-thia-2,5,9-triaza-1(2,4)-pyrimidina-3(1,3)-benzenacyclononaphan-1^5-yl]benzoate], in that order: ≤ 2000 nM and > 1000 nM. For `CC(=O)c1ccc(-c2cnc3nc2NCCCNS(=O)(=O)c2cccc(c2)N3)cc1` [Example 7, 1-[4-[4,4-dioxo-4λ^6-thia-2,5,9-triaza-1(2,4)-pyrimidina-3(1,3)-benzenacyclononaphan-1^5-yl]phenyl]-ethanone], in that order: ≤ 2000 nM and > 1000 nM. For `O=S1(=O)NCCCNc2nc(ncc2-c2ccccc2)Nc2cccc1c2` [Example 8, 1^5-phenyl-4-thia-2,5,9-triaza-1(2,4)-pyrimidina-3(1,3)-benzenacyclononaphane 4,4-dioxide], in that order: ≤ 2000 nM and > 1000 nM.
